Assay results reported in patent US20260284208A1, “SYSTEM” (Oxford University Innovation Limited, priority 2023, published 2026).

Test system: library of 8,380 IKZF3 degrons (ZF-eGFP/mCherry reporter) in Jurkat cells
Assay: Pooled library screen (FACS, NGS, limma voom LogFC of positive vs negative read counts)
Assay type: cell-based, human
Description: A library of 8,380 IKZF3 degrons was cloned into pLVX-Sprout to create the eGFP/mCherry protein degradation reporter plasmid pool. A lentivirus pool was then generated using the Lenti-X lentiviral vector production method.
Jurkat cells were transduced at a multiplicity of infection of <0.3 with the lentivirus vector library in order to maximise the number of cells with a single integration. Transductions were carried out in 6 well TC-treated cell culture dishes (Falcon) with 3×10^6 cells per well. Cells were incubated for 2 days at 37° C. and 5% CO2 before the supernatant was removed and replaced with fresh media. 6 days post-transduction, mCherry+ cells were isolated via FACS using the FACS Aria Fusion (BD) in a buffer containing PBS (Gibco), 2 mM EDTA (Gibco), 25 mM HEPES (Sigma) and 1% BSA (Sigma). 8 days later, cells were treated with DMSO or a thalidomide analog for 18 hours at 37° C. and 5% CO2. mCherry+GFPlow and NOT(mCherry+GFPlow) cells were sorted by FACS using the FACS Aria Fusion (BD). DMSO treated cells were used to set the mCherry+GFPlow gate and dead cells were excluded from sorting by staining cells with 1 μg/mL DAPI (ThermoFisher). gDNA was isolated using the Maxwell RSC 48 (Promega). gDNA from cells that were unsorted and untreated were also isolated to determine the library representation on the day of compound treatment. Throughout the screen >600× coverage of the library was maintained. 3 biological replicates were carried out with a new transduction taking place each time.
A two-step PCR was used where the first PCR (PCR1) amplified the integrated degron sequence from gDNA and the second PCR (PCR2) added Illumina adaptors and barcodes to permit multiplexing. See Supp F for PCR1 and PCR2 primers. Q5 Hot Start High-Fidelity 2× Master Mix (New England Biolabs) was used for both PCRs. Sufficient gDNA was amplified in PCR1 in order to maintain >600× coverage and amplicons were purified using solid phase reversible immobilization (SPRI) beads (Beckman Coulter). Purified PCR1 products were analysed on the Tapestation 4200 (Agilent) to confirm purity prior to proceeding to PCR2. Sufficient PCR1 product was amplified in PCR2 in order to maintain >600× coverage and amplicons were run on a 2% agarose TAE gel. Target bands were excised and purified using the NucleoSpin Gel and PCR Clean-up Kit (Machery Nagel). Amplicons were analysed on the Tapestation 4200 and quantified using Qubit dsDNA HS kit (ThermoFisher). PCR products were pooled and sequenced as paired-reads on the NovaSeq (Illumina) using a SP2 200 cycles kit (Illumina).
Count distributions, percentage of read mapping, library coverage and replicate correlation per sample were assessed for QC purposes.
To carry out the library screen, we used the same plasmid construct as in our earlier flow cytometry assays, but pooling all 8,380 mutants together into one Jurkat population, ensuring a copy number of one plasmid per cell (FIG. 4B). […] These GFP-negative cells were then separated from the remaining GFP-positive population using fluorescence activated cell sorting (FACS). These two populations were then sequenced and the relative abundance of every mutant in both populations compared to provide a log FC value for each mutant sequence. This value indicated how frequently a sequence is observed in the GFP-negative population relative to the GFP-positive population, and therefore how effective a degron it is for that particular IMID compound.

O=C1CCC(N2C(=O)c3ccc(N4CCOCC4)cc3C2=O)C(=O)N1 (centres unmarked) [B03] was tested, and the B03_logFC (Degron-ID 115, SEQ ID NO 3968, 46F_47A_49E_50V_52G_53A_54S_55F_67L) was 2.732, the B03_logFC (Degron-ID 120, SEQ ID NO 4031, 46F_47A_49N_50I_52G_53A_54A_55F_67L) was 2.638 and the B03_logFC (Degron-ID 315, SEQ ID NO 3989, 46F_47C_49E_50I_52G_53A_54S_55F_67L) was 2.703. For the same compound, the B03_logFC (Degron-ID 372, SEQ ID NO 3966, 46F_47C_49N_50I_52G_53A_54P_55F_67L) was 2.733, the B03_logFC (Degron-ID 433, SEQ ID NO 4021, 46F_47C_49P_50I_52G_53A_54Q_55F_67L) was 2.656 and the B03_logFC (Degron-ID 434, SEQ ID NO 3957, 46F_47C_49P_50I_52G_53A_54R_55F_67L) was 2.746. It also gave a B03_logFC (Degron-ID 435, SEQ ID NO 3984, 46F_47C_49P_50I_52G_53A_54S_55F_67L) of 2.71, a B03_logFC (Degron-ID 977, SEQ ID NO 4017, 46F_47F_49D_50I_52G_53A_54V_55F_67L) of 2.662 and a B03_logFC (Degron-ID 1011, SEQ ID NO 3988, 46F_47F_49D_50V_52G_53A_54N_55F_67L) of 2.704. For the same compound, the B03_logFC (Degron-ID 1015, SEQ ID NO 3971, 46F_47F_49D_50V_52G_53A_54S_55F_67L) was 2.728, the B03_logFC (Degron-ID 1065, SEQ ID NO 3981, 46F_47F_49E_50V_52G_53A_54G_55F_67L) was 2.716 and the B03_logFC (Degron-ID 1080, SEQ ID NO 4003, 46F_47F_49N_50I_52G_53A_54A_55F_67L) was 2.68. For the same compound, the B03_logFC (Degron-ID 1081, SEQ ID NO 4001, 46F_47F_49N_50I_52G_53A_54C_55F_67L) was 2.686, the B03_logFC (Degron-ID 1097, SEQ ID NO 3956, 46F_47F_49N_50I_52G_53A_54V_55F_67L) was 2.747 and the B03_logFC (Degron-ID 1183, SEQ ID NO 4013, 46F_47F_49P_50V_52G_53A_54E_55F_67L) was 2.668. For the same compound, the B03_logFC (Degron-ID 1188, SEQ ID NO 4025, 46F_47F_49P_50V_52G_53A_54K_55F_67L) was 2.644, the B03_logFC (Degron-ID 1197, SEQ ID NO 3982, 46F_47F_49P_50V_52G_53A_54V_55F_67L) was 2.716 and the B03_logFC (Degron-ID 1267, SEQ ID NO 3977, 46F_47G_49E_50I_52G_53A_54I_55F_67L) was 2.719. It also gave a B03_logFC (Degron-ID 1273, SEQ ID NO 4024, 46F_47G_49E_50I_52G_53A_54Q_55F_67L) of 2.644, a B03_logFC (Degron-ID 1314, SEQ ID NO 3964, 46F_47G_49E_50V_52G_53A_54R_55F_67L) of 2.737 and a B03_logFC (Degron-ID 1393, SEQ ID NO 4023, 46F_47G_49P_50I_52G_53A_54Q_55F_67L) of 2.648. The B03_logFC (Degron-ID 1433, SEQ ID NO 4022, 46F_47G_49P_50V_52G_53A_54Q_55F_67L) was 2.653, the B03_logFC (Degron-ID 1513, SEQ ID NO 4030, 46F_47H_49E_50I_52G_53A_54Q_55F_67L) was 2.639 and the B03_logFC (Degron-ID 1515, SEQ ID NO 4006, 46F_47H_49E_50I_52G_53A_54S_55F_67L) was 2.675. It also gave a B03_logFC (Degron-ID 1555, SEQ ID NO 4029, 46F_47H_49E_50V_52G_53A_54S_55F_67L) of 2.639, a B03_logFC (Degron-ID 1621, SEQ ID NO 4027, 46F_47H_49P_50I_52G_53A_54C_55F_67L) of 2.643 and a B03_logFC (Degron-ID 1751, SEQ ID NO 3952, 46F_47I_49E_50I_52G_53A_54N_55F_67L) of 2.753. For the same compound, the B03_logFC (Degron-ID 1754, SEQ ID NO 4020, 46F_47I_49E_50I_52G_53A_54R_55F_67L) was 2.656, the B03_logFC (Degron-ID 1755, SEQ ID NO 3970, 46F_47I_49E_50I_52G_53A_54S_55F_67L) was 2.728 and the B03_logFC (Degron-ID 1785, SEQ ID NO 4016, 46F_47I_49E_50V_52G_53A_54G_55F_67L) was 2.664. For the same compound, the B03_logFC (Degron-ID 1865, SEQ ID NO 4014, 46F_47I_49P_50I_52G_53A_54G_55F_67L) was 2.667, the B03_logFC (Degron-ID 1871, SEQ ID NO 3960, 46F_47I_49P_50I_52G_53A_54N_55F_67L) was 2.742 and the B03_logFC (Degron-ID 1913, SEQ ID NO 3962, 46F_47I_49P_50V_52G_53A_54Q_55F_67L) was 2.739. For the same compound, the B03_logFC (Degron-ID 1915, SEQ ID NO 3965, 46F_47I_49P_50V_52G_53A_54S_55F_67L) was 2.736, the B03_logFC (Degron-ID 2392, SEQ ID NO 4011, 46F_47L_49P_50V_52G_53A_54P_55F_67L) was 2.671 and the B03_logFC (Degron-ID 2957, SEQ ID NO 3986, 46F_47Q_49E_50I_52G_53A_54V_55F_67L) was 2.708. It also gave a B03_logFC (Degron-ID 2981, SEQ ID NO 4000, 46F_47Q_49E_50V_52G_53A_54C_55F_67L) of 2.687, a B03_logFC (Degron-ID 2996, SEQ ID NO 4026, 46F_47Q_49E_50V_52G_53A_54T_55F_67L) of 2.643 and a B03_logFC (Degron-ID 2997, SEQ ID NO 3951, 46F_47Q_49E_50V_52G_53A_54V_55F_67L) of 2.756. The B03_logFC (Degron-ID 3073, SEQ ID NO 3979, 46F_47Q_49P_50I_52G_53A_54Q_55F_67L) was 2.718, the B03_logFC (Degron-ID 3076, SEQ ID NO 3959, 46F_47Q_49P_50I_52G_53A_54T_55F_67L) was 2.742 and the B03_logFC (Degron-ID 3115, SEQ ID NO 3978, 46F_47Q_49P_50V_52G_53A_54S_55F_67L) was 2.718. The B03_logFC (Degron-ID 3432, SEQ ID NO 3998, 46F_47S_49E_50I_52G_53A_54P_55F_67L) was 2.688, the B03_logFC (Degron-ID 3540, SEQ ID NO 3999, 46F_47S_49P_50I_52G_53A_54A_55F_67L) was 2.688 and the B03_logFC (Degron-ID 3791, SEQ ID NO 4035, 46F_47T_49P_50I_52G_53A_54N_55F_67L) was 2.632. It also gave a B03_logFC (Degron-ID 3833, SEQ ID NO 4034, 46F_47T_49P_50V_52G_53A_54Q_55F_67L) of 2.635, a B03_logFC (Degron-ID 3835, SEQ ID NO 3974, 46F_47T_49P_50V_52G_53A_54S_55F_67L) of 2.722 and a B03_logFC (Degron-ID 3953, SEQ ID NO 3961, 46F_47V_49E_50V_52G_53A_54Q_55F_67L) of 2.742. For the same compound, the B03_logFC (Degron-ID 4065, SEQ ID NO 4015, 46F_47V_49P_50V_52G_53A_54G_55F_67L) was 2.665 and the B03_logFC (Degron-ID 4087, SEQ ID NO 3963, 46F_47W_49D_50I_52G_53A_54I_55F_67L) was 2.738.
